{"source": "patent US12702654B2", "about": "“Compositions and methods for treating homocystinuria and other conditions using polyamines” (THE REGENTS OF THE UNIVERSITY OF COLORADO, priority 2020, dated 2026)", "key": {"HO HCU mice [1]": {"test_system": "HO HCU mice", "test": "Plasma metabolite levels (tHcy, methionine cycle amino acids, SAM, SAH) in HO HCU mice", "format": "in vivo, mouse", "method": "It is noted that WT mice (n=6) include untreated controls. HO HCU mice (N=8, 4 of each sex in each group) were either untreated or treated with about 3.0% (w/v) glycine w/v or about 3.0% (w/v) serine given in drinking water supplied ad libitum for one week. Plasma samples were taken and Hcy and cysteine levels were determined. *** denotes a P value <0.0001.\nIn accordance with these methods, HO HCU mice (N=8, 4 of each sex in each group) were treated with either about 3.0% glycine w/v or about 3.0% w/v serine given in drinking water supplied ad libitum for one week in the presence and absence of about 3.0% w/v betaine. Plasma samples were taken from the mice at various times and Hcy levels were determined.\nPlasma Hcy levels were determined from HO HCU mice (n=8 per group) in the presence and absence of either about 5.0% w/v sodium formate alone or in combination with about 3.0% betaine given in drinking water given ad libitum.\nIn one exemplary method, mice were given zinc in drinking water. For this example, 8 HO HCU mice were provided drinking water supplemented with zinc (e.g. 0.05% w/v Zinc sulfate) given ad libitum for one week.\n(§1) In another exemplary method, the transsulfuration pathway and methionine-folate cycle pathways, as show in the sematic illustrated in FIG. 18A, were assessed. In brief, three experimental groups (n=8 for each group) of male mice consisting of either untreated WT controls or HO HCU mice in the presence or absence of betaine treatment. Betaine was administered by dissolving the compound in drinking water at 30 g/l and was supplied ad libitum to the mice for one week. Treatment water was replenished twice per week.\nA comparative reference data set was generated for these mice by examining plasma levels of tHcy, methionine, cysteine, serine, glycine, dimethylglycine, methylglycine (MG, SAM and SAH). In brief, determination of plasma levels of amino acids relevant to the methionine cycle were determined using methods similar to those described in Stabler et al., Blood. 81 (1993) 3404-3413, incorporated in its entirety herein. Determination of hepatic 5-methylTHF was performed by liquid chromatography-tandem mass spectrometry using methods similar to those described in Witham et al., PLoS One. 8 (2013) e77923, incorporated in its entirety herein. The global metabolomic analysis of methionine and folate cycle related metabolites was carried out by Metabolon, Inc. Briefly, sample preparation was performed utilizing the automated MicroLab STAR® system. Sample preparation was performed using a proprietary series of organic and aqueous extractions to remove the protein fraction while allowing maximum recovery of small molecules. The resulting extract was divided into two fractions: one for analysis by liquid chromatography and one for analysis by gas chromatography. Each sample was then frozen and dried under vacuum. The LC/mass spectrometer portion of the platform was based on a Waters ACQUITY UPLC and a Thermo-Finnigan LTQ mass spectrometer, which consisted of an electrospray ionization source and linear ion-trap mass analyzer. Samples were analyzed on a Thermo-Finnigan Trace DSQ fast-scanning single-quadrupole mass spectrometer using electron impact ionization. Identification of known chemical entities was based on comparison to library entries of authenticated standards. Tissue polyamines putrescine, spermidine and spermine and 5-methylthioadenosine (MTA) were determined by liquid chromatography-tandem mass spectrometry using methods similar to those described in Stevens et al., J Chromatogr A 1217 (2010) 3282-3288, incorporated in its entirety herein."}, "MTHFR": {"test_system": "MTHFR", "test": "Western blotting of hepatic MTHFR expression", "format": "in vivo, mouse", "details": "HO mice, 30 g/l in drinking water ad libitum, one week", "method": "(§2) To investigate the effects of these treatments upon the hepatic regulatory changes in enzyme expression induced by HCU, the human transgenic HO mouse model of HCU was used. In brief, experimental groups consisting of 8 HO mice on a C57BL/6J background and 8 C57BL/6J WT littermate control mice bred in house were used. Mice in both groups were male and aged between 3 and 4 months. Except where otherwise stated, all mice were maintained on standard chow. All diets were administered using a paired-feeding design to ensure isocaloric intake between all experimental groups and body weights were measured once per week. There was no significant difference in body weight between mice in any of the experimental groups. Betaine and taurine were in this example, both administered by dissolving these compounds in drinking water at 30 g/l (2% or 3% w/v) and were supplied ad libitum for one week. Treatment water was replenished twice per week.\n(§3) Western blotting analysis of SAHH, MTHFR and SHMT2 expression was performed in liver samples from HO mice in the presence and absence of betaine or taurine treatment."}, "SHMT2": {"test_system": "SHMT2", "test": "Western blotting of hepatic SHMT2 expression", "format": "in vivo, mouse", "details": "HO mice, 30 g/l in drinking water ad libitum, one week", "method": "as §2, §3"}, "MAT1A": {"test_system": "MAT1A", "test": "Western blotting of hepatic MAT1A expression", "format": "in vivo, mouse", "details": "HO HCU mice, 30 g/l in drinking water ad libitum, one week", "method": "as §2\n(§4) These observations are the first to report betaine and taurine acting to regulate expression of these processes. Therefore, this observation supports that taurine alone or in combination with betaine and other treatments for genetic homocystinuria are viable options for avoiding dietary restraints and treating these conditions."}, "GNMT": {"test_system": "GNMT", "test": "Western blotting of hepatic GNMT expression", "format": "in vivo, mouse", "details": "HO HCU mice, 30 g/l in drinking water ad libitum, one week", "method": "as §2, §4"}, "[2]": {"test_system": "mouse model of MTR deficient homocystinuria", "test": "tHcy in mouse model of MTR deficient homocystinuria", "format": "in vivo", "details": "betaine supplementation", "description": "In the following exemplary experiments, it was observed that betaine supplementation was limited as observed in a mouse model of MTR deficient homocystinuria. As noted in FIG. 1, homocystinuria can occur due to defects in the Hcy remethylation enzymes MTR or MTHFR. It was observed that supplementation of betaine in certain experiments with a mouse model of MTR deficient homocystinuria lead to reduction of tHcy of approximately 25% having little effect on the condition. This modest decrease in betaine mediated treatment of MTR deficient homocystinuria has also been observed in human patients with this form of homocystinuria."}, "[3]": {"details": "mouse, in vivo", "method": "as §1\nas §2, with “Betaine and taurine were in this example, both administered by dissolving these compounds in drinking water at 30 g/l (2% or 3% w/v) and were supplied ad libitum for one week. Treatment water was replenished twice per week.” left out"}, "[4]": {"test_system": "pro-inflammatory cytokines (TNF-α, IL-1β)", "test": "Pro-inflammatory cytokine expression in HO HCU mice", "format": "in vivo, mouse"}, "HO HCU mice [5]": {"test_system": "HO HCU mice", "details": "earlier study, cited from earlier work"}, "HO HCU mice [6]": {"test_system": "HO HCU mice", "test": "Plasma metabolite levels (tHcy, methionine cycle amino acids, SAM, SAH) in HO HCU mice", "format": "in vivo, mouse", "details": "long-term betaine treatment, no methionine-restriction"}, "[7]": {"details": "HO HCU mice, betaine 30 g/l in drinking water, one week"}, "[8]": {"details": "HO model, betaine treatment, P<0.0001"}, "[9]": {"details": "HO HCU mice, prolonged betaine treatment"}}, "note": "“Also recorded” adds a separate entry of the source.", "data": [{"smiles": "C[N+](C)(C)CC(=O)O", "note": "[betaine, N,N,N-trimethylglycine]", "values": [{"measurement": "increase of plasma Met compared to untreated HCU mice", "setting": "HO HCU mice [1]; [7]", "result": 3, "unit": "fold"}, {"measurement": "plasma DMG", "setting": "HO HCU mice [1]; [7]", "result": "strongly increased"}, {"measurement": "plasma MG", "setting": "HO HCU mice [1]; [7]", "result": "strongly increased"}, {"measurement": "plasma SAH", "setting": "HO HCU mice [1]; [7]", "result": "significantly decreased, but not normalized"}, {"measurement": "plasma SAM", "setting": "HO HCU mice [1]; [7]", "result": "significantly decreased, but not normalized"}, {"measurement": "plasma glycine", "setting": "HO HCU mice [1]; [7]", "result": "did not change significantly"}, {"measurement": "plasma serine", "setting": "HO HCU mice [1]; [7]", "result": "did not change significantly"}, {"measurement": "decrease in plasma tHcy", "setting": "HO HCU mice [1]; HO HCU mice, betaine 30 g/l in drinking water, one week, P<0.0001", "result": "~60", "unit": "%"}, {"measurement": "depletion of plasma total cysteine", "setting": "HO HCU mice [1]; HO HCU mice, betaine 30 g/l in drinking water, one week, remained lower than WT", "result": "significantly ameliorated"}, {"measurement": "decrease in AdoHcy levels", "setting": "HO HCU mice [1]; [8]", "result": "fivefold decrease"}, {"measurement": "plasma DMG", "setting": "HO HCU mice [1]; [8]", "result": "increase"}, {"measurement": "plasma MG", "setting": "HO HCU mice [1]; [8]", "result": "increase"}, {"measurement": "plasma cysteine", "setting": "HO HCU mice [1]; [8]", "result": "increase"}, {"measurement": "plasma methionine", "setting": "HO HCU mice [1]; [8]", "result": "increase"}, {"measurement": "decrease in plasma AdoMet", "setting": "HO HCU mice [1]; HO model, betaine treatment, P=0.0039", "result": 40, "unit": "%"}, {"measurement": "reduction of Hcy levels by standard treatment alone", "setting": "HO HCU mice [1]; betaine alone, as previously observed", "result": "15-25%"}, {"measurement": "HCU-mediated induction of hepatic MTHFR expression", "setting": "MTHFR", "result": "completely reversed"}, {"measurement": "HCU-induced repression of hepatic SHMT2", "setting": "SHMT2", "result": "completely reversed"}, {"measurement": "hepatic MAT1a expression", "setting": "MAT1A", "result": "induced expression"}, {"measurement": "hepatic GNMT expression", "setting": "GNMT", "result": "induced expression"}, {"measurement": "reduction of tHcy", "setting": "[2]", "result": "approximately 25%"}, {"measurement": "tolerability of doses", "setting": "[3]", "result": "well tolerated"}, {"measurement": "plasma levels of IL-1β", "setting": "[4]; [9]", "result": "significant increase"}, {"measurement": "plasma levels of TNF-α", "setting": "[4]; [9]", "result": "significant increase"}, {"measurement": "pro-inflammatory cytokine expression", "setting": "[4]; HO model, one week of betaine treatment", "result": "virtual ablation of most of the pro-inflammatory cytokine expression; also recorded: decrease pro-inflammatory cytokine expression"}, {"measurement": "total homocysteine levels after a longer period of treatment", "setting": "HO HCU mice [5]; HCU mice, longer period of betaine treatment", "result": "greater than 100 μM"}, {"measurement": "plasma homocysteine", "setting": "HO HCU mice [5]; mouse model of HCU, betaine treatment", "result": "below 100 μM"}, {"measurement": "ability of betaine treatment to lower homocysteine", "setting": "HO HCU mice [6]", "result": "diminished significantly over time"}]}]}
